# Experiments:
# [1] = system: Human umbilical cord endothelial cells (HUVEC); assay: VEGF-driven cellular proliferation assay: BrdU incorporation assay (VEGF-C); format: cell-based; set-up: key to VEGF-C: + = pIC50 of 5.0–6.0; ++ = pIC50 of 6.0–7.0; +++ = pIC50 of > 7.0; − = a negative or inconclusive result; details: for IC50: Homo sapiens
# Description: VFGF-driven Cellular Proliferation Assay: BrdU Incorporation Assay (VEGF-C)
# Human umbilical cord endothelial cells (HUVEC, Clonetics, CC2519) were passaged in Type I collagen-coated 100-mm petridishes in EGM-MV medium (Clonetics, CC3125) at 37° C. in a humidified 5% CO2, 95% air incubator. (HUVEC passaged more than 6 times in vitro were discarded and not subjected to assaying.) The cells were harvested using trypsin/EDTA, counted using a haemocytometer and plated at 5000 cells/well in a Type I-collagen coated 96-well plate (Becton Dickinson, 354407) in M199 medium (Gibco BRL, 12340-030) containing 5% FBS (Hyclone, A 1115-L) and gentamicin (at 50 μg/ml, Gibco BRL). After incubation overnight at 37° C., the media were replaced with 100 μl of M199 serum-free medium containing compounds at various concentrations with 0.6% DMSO and gentamicin. The compounds were diluted in serum-free M199 medium from 10 mM stock solutions prepared in 100% DMSO. After a 30 min incubation at 37° C., the cells were fed with 100 μl of serum-free M199 medium containing gentamicin, 0.2% culture-grade bovine serum albumin (BSA, Sigma A1993) and 20 ng/ml of VEGF (R&D systems, 293-VE) or 0.6 ng/ml of basic FGF (R&D systems, 233-FB), and cultured at 37° C. for another 24 h. The cells were pulsed with bromodeoxyuridine (BrdU at 10 μM in serum-free M199) at 37° C. for an additional 24 h. The incorporation of BrdU into the proliferating HUVEC were analyzed using BrdU Cell Proliferation ELISA (Roche Molecular Biochemicals, 1647229) according to the manufacturer's protocols. The optical density at 450 nm was measured with a multilabel counter (ARVO SX, Wallac). The percent inhibition of cell growth was calculated relative to blank control wells. The concentration of test compound that inhibits 50% of cell growth (IC50) was interpolated using nonlinear regression (Levernberg-Marquardt) and the equation, y=Vmax (1−x/(K+x))+Y2, where “K” was equal to the IC50. The IC50, values were converted to pIC50 values, i.e., −log IC50 in Molar concentration.
# GST-VEGFR2 = molecular target: T1, GST-VEGFR2 (Homo sapiens, UniProt P35968); assay: VEGF-R2 enzyme assay (VEGF-E), LANCE method; format: biochemical; details: 75 μM ATP
# T1 construct: GST-VEGFR2, baculovirus expressed recombinant constructs of the intracellular domains of human TIE2 tagged by GST; made in house
# T1 sequence (P35968 786-1356 limits assumed): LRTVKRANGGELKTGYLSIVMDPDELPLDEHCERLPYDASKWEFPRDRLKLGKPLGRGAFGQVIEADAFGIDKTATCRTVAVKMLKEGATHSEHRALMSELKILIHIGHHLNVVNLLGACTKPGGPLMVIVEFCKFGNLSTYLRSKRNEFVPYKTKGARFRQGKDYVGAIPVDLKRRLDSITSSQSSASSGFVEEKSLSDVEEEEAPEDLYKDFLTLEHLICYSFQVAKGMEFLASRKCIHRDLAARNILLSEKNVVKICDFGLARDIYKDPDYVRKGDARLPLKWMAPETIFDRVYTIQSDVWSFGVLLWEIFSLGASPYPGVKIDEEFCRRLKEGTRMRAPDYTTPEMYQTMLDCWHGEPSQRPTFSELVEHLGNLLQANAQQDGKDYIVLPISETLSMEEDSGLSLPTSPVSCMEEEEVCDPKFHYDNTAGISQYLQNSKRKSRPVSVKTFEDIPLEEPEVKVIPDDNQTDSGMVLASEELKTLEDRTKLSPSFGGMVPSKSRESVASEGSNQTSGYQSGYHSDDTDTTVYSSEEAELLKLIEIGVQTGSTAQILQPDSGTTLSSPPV
# Description: VEGF-R2 Enzyme Assay (VEGF-E)
# The VEGF enzyme assay used the LANCE method (Wallac) and GST-VEGFR2, baculovirus expressed recombinant constructs of the intracellular domains of human […] tagged by GST. […] The reaction was stopped by the addition of EDTA (final concentration 50 mM). Streptavidin linked-APC (allophycocyanin, Molecular Probe) and Europium-labeled anti-phosphorylated tyrosine antibody (Wallac) were then added at the final concentration of 15 nM and 1 nM, respectively. The APC signal was measured using an ARVO multilabel counter (Wallac Berthold, Japan). The percent inhibition of activity was calculated relative to blank control wells. The concentration of test compound that inhibits 50% of activity (IC50) was interpolated using nonlinear regression (Levernberg-Marquardt) and the equation, y=Vmax (1−x/(K+x))+Y2, where “K” was equal to the IC50. The IC50 values were converted to pIC50 values, i.e., −log IC50 in Molar concentration.
# [2] = molecular target: T2, GST-TIE2 (intracellular domains of human TIE2) (Homo sapiens, UniProt Q02763); assay: TIE-2 enzyme assay (TIE2-E), LANCE method; format: biochemical; details: 80 uM ATP
# T2 construct: made in house
# T2 sequence (Q02763 762-1104): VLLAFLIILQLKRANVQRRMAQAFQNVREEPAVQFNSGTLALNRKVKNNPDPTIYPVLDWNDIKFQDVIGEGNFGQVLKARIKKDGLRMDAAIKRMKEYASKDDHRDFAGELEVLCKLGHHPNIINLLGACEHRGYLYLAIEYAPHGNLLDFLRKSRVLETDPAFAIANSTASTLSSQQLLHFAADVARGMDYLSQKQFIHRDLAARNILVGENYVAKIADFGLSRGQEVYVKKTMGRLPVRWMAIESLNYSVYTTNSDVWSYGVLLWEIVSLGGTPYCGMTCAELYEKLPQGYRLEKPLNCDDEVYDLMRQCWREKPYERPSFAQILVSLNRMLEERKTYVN
# Description: TIE-2Enzyme Assay (TIE2-E)
# The TIE-2 enzyme assay used the LANCE method (Wallac) and GST-TIE2, baculovirus expressed recombinant constructs of the intracellular domains of human TIE2 (amino acids 762–1104, GenBank Accession # L06139) tagged by GST). […] This peptide phosphorylation was detected using the following procedure: for enzyme preactivation, GST-TIE2 was incubated for 30 mins at room temperature with 2 mM ATP, 5 mM MgCl2 and 12.5 mM DTT in 22.5 mM HEPES buffer (pH7.4). Preactivated GST-TIE2 was incubated for 30 mins at room temperature in 96 well plates with 1 μM D1-15 peptide, 80 uM ATP, 10 mM MgCl2, 0.1 mg/ml BSA and the test compound (diluted from a 10 mM stock in DMSO, final DMSO concentration was 2.4%) in 1 mM HEPES (pH7.4). The reaction was stopped by the addition of EDTA (final concentration 45 mM). Streptavidin linked-APC (allophycocyanin, Molecular Probe) and Europium-labeled anti-phosphorylated tyrosine antibody (Wallac) were then added at the final concentration of 17 μg/well and 2.1 μg/well, respectively. The APC signal was measured using an ARVO multilabel counter. (Wallac Berthold Japan). The percent inhibition of activity was calculated relative to blank control wells. The concentration of test compound that inhibits 50% of activity (IC50) was interpolated using nonlinear regression (Levernberg-Marquardt) and the equation, y=Vmax (1−x/(K+x))+Y2, where “K” was equal to the IC50. The IC50 values were converted to pIC50 values, i.e., −log IC50 in Molar concentration.
SMILES,IC50 (GST-VEGFR2),IC50 [2],VEGF-E (GST-VEGFR2),IC50 [1],VEGF-C [1]
"CC(=O)Nc1nc2cc(Oc3ccc(NC(=O)Nc4cc(C(F)(F)F)ccc4F)cc3)ccc2[nH]1 [Example 25, N-(5-(4-((2-Fluoro-5-(trifluoromethyl)phenyl)aminocarbonylamino)phenoxy)-1H-benzimidazol-2-yl)acetamide]",,,,< 100 nM,
"COC(=O)Nc1nc2ccc(Sc3ccc(NC(=O)Nc4cc(C(F)(F)F)ccc4F)cc3)cc2[nH]1 [Example 9, Methyl N-(5-(4-((2-fluoro-5-(trifluoromethyl)phenyl)aminocarbonylamino)phenylthio)-1H-benzimidazol-2-yl)carbamate]",,,,,−
COC(=O)Nc1nc2c(Br)cc(Oc3ccc(NC(=O)Nc4cc(C(F)(F)F)ccc4F)cc3)cc2s1.Cl [Example 65],,,,,−
"O=C(Nc1ccc(Oc2ccc3[nH]c(NC(=O)c4ccco4)nc3c2)cc1)Nc1cc(C(F)(F)F)ccc1F [Example 27, N-(5-(4-((2-Fluoro-5-(trifluoromethyl)phenyl)aminocarbonylamino)phenoxy)-1H-benzimidazol-2-yl)(2-fury)formamide]",,,,100 to 1000 nM,

# Further lines, with some results ahead:
IC50 (GST-VEGFR2),IC50 [2],VEGF-E (GST-VEGFR2),SMILES,IC50 [1],VEGF-C [1]
1000 to 10000 nM,< 100 nM,,"COC(=O)Nc1nc2ccc(Sc3ccc(NC(=O)Nc4cc([N+](=O)[O-])ccc4C)cc3)cc2[nH]1 [Example 6, Methyl N-(5-(4-((2-methyl-5-nitrophenyl)aminocarbonylamino)phenylthio)-1H-benzimidazol-2-yl)carbamate]",,−
100 to 1000 nM,,,"COC(=O)Nc1nc2cc(Oc3ccc(NC(=S)Nc4cccc(OC)c4)cc3)ccc2[nH]1 [Example 185, Methyl N-(5-(4-((3-methoxyphenyl)aminothiocarbonylamino)phenoxy)-1H-benzimidazol-2-yl)carbamate]",1000 to 10000 nM,
< 100 nM,100 to 1000 nM,,"COC(=O)Nc1nc2ccc(Sc3ccc(NC(=O)Nc4cc(C(F)(F)F)cc(C(F)(F)F)c4)cc3)cc2[nH]1 [Example 3, Methyl N-(5-(4-((3,5-di(trifluoromethyl)phenyl)aminocarbonylamino)phenylthio)-1H-benzimidazol-2-yl)carbamate]",,−
,< 100 nM,−,"CCc1cccc(NC(=O)Nc2ccc(Sc3ccc4nc(NC(=O)OC)[nH]c4c3)cc2)c1 [Example 7, Methyl N-(5-(4-((3-ethylphenyl)aminocarbonylamino)phenylthio)-1H-benzimidazol-2-yl)carbamate]",,−
< 100 nM,,,"COC(=O)Nc1nc2ccc(Oc3ccc(NC(=O)Nc4cc(C(F)(F)F)ccc4F)cc3)cc2[nH]1 [Example 10, Methyl N-(5-(4-((2-fluoro-5-(trifluoromethyl)phenyl)aminocarbonylamino)phenoxy)-1H-benzimidazol-2-yl)carbamate]",< 100 nM,
< 100 nM,< 100 nM,,"COC(=O)Nc1nc2ccc(Sc3ccc(NC(=O)Nc4cc([N+](=O)[O-])ccc4F)cc3)cc2[nH]1 [Example 8, Methyl N-(5-(4-((2-fluoro-5-nitrophenyl)aminocarbonylamino)phenylthio)-1H-benzimidazol-2-yl)carbamate]",,−

# From patent US7238813B2, “Chemical compounds” (Smithkline Beecham Corporation, priority 2000, dated 2007)
